Data reported in ChEMBL document CHEMBL5137134, “Developing the Natural Prenylflavone Artocarpin from Artocarpus hirsutus as a Potential Lead Targeting Pathogenic, Multidrug-Resistant Staphylococcus aureus, Persisters and Biofilms with No Detectable Resistance” (J Nat Prod, 2022).
Converted amounts (≈) assume the structure as drawn.

Columns and labels:
[1] = Cytotoxicity against African green monkey Vero cells after 72 hrs by MTT assay; format: toxicity, cell-based; conditions: chlorocebus sabaeus
Staphylococcus aureus [2] = test: Antibacterial activity against methicillin/meropenem/levoflaxacin resistant Staphylococcus aureus NRS 198 assessed as reduction in bacterial growth incubated for 16 to 18 hrs by broth microdilution method; format: functional; conditions: time 16-18 hrs
Enterococcus [3] = test: Antibacterial activity against Enterococcus NR 31903 assessed as reduction in bacterial growth incubated for 16 to 18 hrs by broth microdilution method; format: functional; conditions: time 16-18 hrs
Staphylococcus aureus [4] = test: Synergistic antibacterial activity against Staphylococcus aureus ATCC 29213 at 1 time MIC after 24 hrs in presence of gentamicin by time kill assay; format: functional
Enterococcus [5] = test: Antibacterial activity against vancomycin/methicillin/levoflaxacin/minocycline resistant Enterococcus NR 31903 assessed as reduction in bacterial growth incubated for 16 to 18 hrs by broth microdilution method; format: functional; conditions: time 16-18 hrs
Staphylococcus aureus [6] = test: Synergistic antibacterial activity against Staphylococcus aureus ATCC 29213 assessed as fractional inhibitory concentration incubated for 24 hrs in presence of rifampicin by checkerboard method; format: functional
Staphylococcus aureus [7] = test: Antibacterial activity against methicillin/levoflaxacin/meropenem resistant Staphylococcus aureus NRS 186 assessed as reduction in bacterial growth incubated for 16 to 18 hrs by broth microdilution method; format: functional; conditions: time 16-18 hrs
Staphylococcus aureus [8] = test: Synergistic antibacterial activity against Staphylococcus aureus ATCC 29213 assessed as fractional inhibitory concentration incubated for 24 hrs in presence of daptomycin by checkerboard method; format: functional
Escherichia coli = test: Antibacterial activity against Escherichia coli ATCC 25922 assessed as reduction in bacterial growth incubated for 16 to 18 hrs by broth microdilution method; format: functional; conditions: time 16-18 hrs
Staphylococcus aureus [9] = test: Post antibiotic effect against Staphylococcus aureus ATCC 29213 at 10 times MIC incubated for 1 hr followed by replacement with drug free medium and measured every 1 hr (reference value: 0 hr); format: functional
Staphylococcus aureus [10] = test: Antibiofilm activity against Staphylococcus aureus ATCC 29213 assessed as reduction in preformed bacterial biofilm mass at 1 time MIC incubated for 24 hrs by crystal violet staining based microtiter plate reader assay; format: functional; design: scale not given: the % may be the effect or the level left
Staphylococcus aureus [11] = test: Bactericidal activity against Staphylococcus aureus ATCC 29213 assessed as reduction in log10 CFU at 10 time MIC after 1 hr by time kill assay; format: functional
Staphylococcus aureus [12] = test: Synergistic antibacterial activity against Staphylococcus aureus ATCC 29213 assessed as fractional inhibitory concentration incubated for 24 hrs in presence of ceftazidime by checkerboard method; format: functional
Staphylococcus aureus [13] = test: Synergistic antibacterial activity against Staphylococcus aureus ATCC 29213 assessed as reduction in bacterial growth incubated for 24 hrs in presence of ceftazidime by checkerboard method; format: functional
Staphylococcus aureus [14] = test: Synergistic antibacterial activity against Staphylococcus aureus ATCC 29213 assessed as reduction in bacterial growth incubated for 24 hrs in presence of gentamycin by checkerboard method; format: functional
Staphylococcus aureus [15] = test: Antibacterial activity against chloramphenicol resistant Staphylococcus aureus NRS 129 assessed as reduction in bacterial growth incubated for 16 to 18 hrs by broth microdilution method; format: functional; conditions: time 16-18 hrs
Staphylococcus aureus [16] = test: Synergistic antibacterial activity against Staphylococcus aureus ATCC 29213 at 1 time MIC after 24 hrs in presence of linezolid by time kill assay; format: functional
Staphylococcus aureus [17] = test: Synergistic antibacterial activity against Staphylococcus aureus ATCC 29213 assessed as reduction in bacterial growth incubated for 24 hrs in presence of daptomycin by checkerboard method; format: functional
Staphylococcus aureus [18] = test: Antibacterial activity against Staphylococcus aureus ATCC 29213 infected in mouse J774A.1 cells assessed as reduction in intracellular bacterial cells at 5 times MIC incubated for 24 hrs followed by re-plating on TSA plate and measured after 18 to 24 hrs; format: functional
Staphylococcus aureus [19] = test: Synergistic antibacterial activity against Staphylococcus aureus ATCC 29213 assessed as reduction in bacterial growth incubated for 24 hrs in presence of linezolid by checkerboard method; format: functional
Staphylococcus aureus [20] = test: Antibacterial activity against gentamycin/linezolid/methicillin/trimeth/sulfa resistant Staphylococcus aureus NRS 119 assessed as reduction in bacterial growth incubated for 16 to 18 hrs by broth microdilution method; format: functional; conditions: time 16-18 hrs
Staphylococcus aureus [21] = test: Synergistic antibacterial activity against Staphylococcus aureus ATCC 29213 assessed as reduction in bacterial growth incubated for 24 hrs in presence of minocycline by checkerboard method; format: functional
Enterococcus [22] = test: Antibacterial activity against vancomycin sensitive/methicillin resistant Enterococcus NR 31884 assessed as reduction in bacterial growth incubated for 16 to 18 hrs by broth microdilution method; format: functional; conditions: time 16-18 hrs
Staphylococcus aureus [23] = test: Synergistic antibacterial activity against Staphylococcus aureus ATCC 29213 assessed as fractional inhibitory concentration incubated for 24 hrs in presence of minocycline by checkerboard method; format: functional
Pseudomonas aeruginosa = test: Antibacterial activity against Pseudomonas aeruginosa ATCC 27853 assessed as reduction in bacterial growth incubated for 16 to 18 hrs by broth microdilution method; format: functional; conditions: time 16-18 hrs
Staphylococcus aureus [24] = test: Synergistic antibacterial activity against Staphylococcus aureus ATCC 29213 assessed as fractional inhibitory concentration incubated for 24 hrs in presence of linezolid by checkerboard method; format: functional
Staphylococcus aureus [25] = test: Bactericidal activity against Staphylococcus aureus ATCC 29213 assessed as reduction in log10 CFU at 1 time MIC after 1 hr by time kill assay; format: functional
Enterococcus [26] = test: Antibacterial activity against vancomycin/methicillin/levoflaxacin/minocycline resistant Enterococcus NR 31912 assessed as reduction in bacterial growth incubated for 16 to 18 hrs by broth microdilution method; format: functional; conditions: time 16-18 hrs
[27] = Selectivity index, ratio of CC50 for African green monkey Vero cells to MIC for Staphylococcus aureus ATCC 29213; format: toxicity; conditions: read-out: Selectivity Index
Enterococcus [28] = test: Antibacterial activity against vancomycin sensitive/methicillin resistant Enterococcus NR 31888 assessed as reduction in bacterial growth incubated for 16 to 18 hrs by broth microdilution method; format: functional; conditions: time 16-18 hrs

COc1cc2oc(-c3ccc(O)cc3O)c(CC=C(C)C)c(=O)c2c(O)c1/C=C/C(C)C [ARTOCARPIN]
CC50 at 72 h [1]: 80 µg/mL (≈ 183 µM)
MIC (Staphylococcus aureus [2]): 2 µg/mL (≈ 4.58 µM)
MIC (Enterococcus [3]): 2 µg/mL (≈ 4.58 µM)
Activity (Staphylococcus aureus [4]): 100%
MIC (Enterococcus [5]): 2 µg/mL (≈ 4.58 µM)
FIC (Staphylococcus aureus [6]): 0.5
MIC (Staphylococcus aureus [7]): 4 µg/mL (≈ 9.16 µM)
FIC (Staphylococcus aureus [8]): 0.25
MIC (Escherichia coli): > 128 µg/mL
PAE (Staphylococcus aureus [9]): 22 h
Activity (Staphylococcus aureus [10]): 34%
Activity (Staphylococcus aureus [11]): 4.8 log10CFU/ml
FIC (Staphylococcus aureus [12]): 0.5
MIC (Staphylococcus aureus [13]): 2 µg/mL
MIC (Staphylococcus aureus [14]): 0.06 µg/mL
MIC (Staphylococcus aureus [15]): 4 µg/mL (≈ 9.16 µM)
Activity (Staphylococcus aureus [16]): 4 log10CFU/ml
MIC (Staphylococcus aureus [17]): 1 µg/mL
Activity (Staphylococcus aureus [18]): 3.25 log10CFU/ml
MIC (Staphylococcus aureus [19]): 1 µg/mL
MIC (Staphylococcus aureus [20]): 4 µg/mL (≈ 9.16 µM)
MIC (Staphylococcus aureus [21]): 1 µg/mL
MIC (Enterococcus [22]): 2 µg/mL (≈ 4.58 µM)
FIC (Staphylococcus aureus [23]): 0.25
MIC (Pseudomonas aeruginosa): > 128 µg/mL
FIC (Staphylococcus aureus [24]): 0.25
Activity (Staphylococcus aureus [25]): 3.6 log10CFU/ml
MIC (Enterococcus [26]): 2 µg/mL (≈ 4.58 µM)
selectivity ratio [27]: 40
MIC (Enterococcus [28]): 2 µg/mL (≈ 4.58 µM)
